Test results as given in patent US20060040871A1, “Bacterial transforming agent” (priority 2003, published 2006).
Where two headings read alike, the source gives them in different places. Blank lines part the entries; values can stand above or below the molecule they belong to.

Tests used:
[1] = tested on: MRSA; test: Antimicrobial plus BTA against recent clinical MRSA isolates (Table 7); assay type: cell-based, Staphylococcus aureus
Text: The four clinical isolates were isolated from patients during the first three months of 2003. […] An intermediate MRSA has been included, as methicillin-resistance has been achieved by means other than production of PBP2a.

[2] = tested on: VRE; test: Antimicrobial plus BTA against VRE (Table 7); assay type: cell-based, enterococci; conditions: +BTA 0.01%
[3] = tested on: MRSA; test: MIC of ceftazidime or cefuroxime for MRSA grown with or without GBE (Table 2); assay type: cell-based, Staphylococcus aureus; conditions: Control; for MIC: Staphylococcus aureus, read-out: MIC of cefuroxime
Text: Importantly, the usefulness of the agents of the present invention is not limited to increasing bacterial sensitivity to methicillin.

[4] = tested on: MRSA with intermediate resistance to glycopeptides; test: MIC of vancomycin or teicoplanin for MRSA with intermediate resistance to glycopeptides grown with GBE or NAGly (Table 4); assay type: cell-based, Staphylococcus aureus; conditions: NAGly 0.001M; for MIC: Staphylococcus aureus, read-out: MIC of teicoplanin

SMILES: Cc1onc(-c2ccccc2)c1C(=O)N[C@@H]1C(=O)N2[C@@H]1SC(C)(C)[C@@H]2C(=O)O [Oxacillin, oxacillin]
Oxacillin (antimicrobial plus BTA; quantity not named, MIC implied) ([1]; EMRSA-16, oxacillin alone): 256 µg/mL
Oxacillin (antimicrobial plus BTA; quantity not named, MIC implied) ([1]; EMRSA-17, oxacillin alone): 256 µg/mL
Oxacillin (antimicrobial plus BTA; quantity not named, MIC implied) ([1]; I-MRSA, oxacillin alone): 32 µg/mL

SMILES: C#CCC(N)C(=O)O.C#CCC(N)C(=O)O (stereo not drawn) [PPG, Propargylglycine (2-Amino-4-pentynoic acid)]
Oxacillin (antimicrobial plus BTA; quantity not named, MIC implied) ([1]; EMRSA-16, +BTA 0.001%): 4 µg/mL
Cephalexin (antimicrobial plus BTA; quantity not named, MIC implied) ([1]; EMRSA-16, +BTA 0.01%): 12 µg/mL
Oxacillin (antimicrobial plus BTA; quantity not named, MIC implied) ([1]; EMRSA-16, +BTA 0.01%): 1.5 µg/mL
Vancomycin (antimicrobial plus BTA; quantity not named, MIC implied) ([1]; EMRSA-16, +BTA 0.01%): 0.25 µg/mL
Oxacillin (antimicrobial plus BTA; quantity not named, MIC implied) ([1]; EMRSA-17, +BTA 0.001%): 8 µg/mL
Cephalexin (antimicrobial plus BTA; quantity not named, MIC implied) ([1]; EMRSA-17, +BTA 0.01%): 6 µg/mL
Oxacillin (antimicrobial plus BTA; quantity not named, MIC implied) ([1]; EMRSA-17, +BTA 0.01%): 2 µg/mL
Vancomycin (antimicrobial plus BTA; quantity not named, MIC implied) ([1]; EMRSA-17, +BTA 0.01%): 0.25 µg/mL
Oxacillin (antimicrobial plus BTA; quantity not named, MIC implied) ([1]; I-MRSA, +BTA 0.001%): 2 µg/mL
Cephalexin (antimicrobial plus BTA; quantity not named, MIC implied) ([1]; I-MRSA, +BTA 0.01%): 0.125 µg/mL
Oxacillin (antimicrobial plus BTA; quantity not named, MIC implied) ([1]; I-MRSA, +BTA 0.01%): 0.125 µg/mL
Vancomycin (antimicrobial plus BTA; quantity not named, MIC implied) ([1]; I-MRSA, +BTA 0.01%): < 0.25 µg/mL
Vancomycin (antimicrobial plus BTA; quantity not named, MIC implied) [2]: 64 µg/mL

MIC of cefuroxime ([3]; CD40 (EMRSA-1)): >256 µg/mL
MIC of cefuroxime ([3]; E15-97 (EMRSA-15)): >256 µg/mL
MIC of cefuroxime ([3]; E16-96 (EMRSA-16)): >256 µg/mL
MIC of cefuroxime ([3]; JF1-32 (EMRSA-1)): >256 µg/mL
MIC of cefuroxime ([3]; MC01 (EMRSA-1)): >256 µg/mL
MIC of cefuroxime ([3]; PS3-32 (EMRSA-1)): >256 µg/mL
MIC of cefuroxime ([3]; SN31 (EMRSA-1)): >256 µg/mL
MIC of cefuroxime ([3]; ST11 (EMRSA-1)): >256 µg/mL
MIC of cefuroxime ([3]; SW2-32 (EMRSA-1)): >256 µg/mL
MIC ([3]; MRSA / NCTC 12493, NCTC 12493): > 256 µg/mL
MIC ([3]; MRSA, DS09 (EMRSA-1)): > 256 µg/mL
SMILES: CO/N=C(\C(=O)N[C@@H]1C(=O)N2C(C(=O)O)=C(COC(N)=O)CS[C@H]12)c1ccco1 [Cefuroxime, cefuroxime]

MIC of vancomycin ([4]; L266 (first line), EMRSA-17 (VISA)): 4 µg/mL
MIC of vancomycin ([4]; L266 (second line), EMRSA-17 (VISA)): 2 µg/mL
MIC of teicoplanin ([4]; L266, EMRSA-16 (TISA)): 4 µg/mL
MIC of vancomycin ([4]; NCTC 12493): 0.25 µg/mL
MIC ([4]; MRSA / NCTC 12493, NCTC 12493): 0.15 µg/mL
MIC ([4]; MRSA, L265, EMRSA-16 (TISA)): 4 µg/mL
SMILES: CC(=O)NCC(=O)O [NAGly, N-acetylglycine]
